In test [1] the test system is A549 (lung adenocarcinoma). The experiment in a line: Kinase inhibitor screen, selectivity = IMR-90 to A549 viability ratio (ATPlite 1 Step). Particulars: single drugs at 1000 nM, 72 hours, 244 KIs screened, FIG. 2.
Method: Cell lines IMR-90 (normal lung fibroblast) and A549 (lung adenocarcinoma) were cultured in RPMI 1640 (Hyclone) supplemented with 10% Canadian characterized fetal bovine serum (Hyclone), 1% 200 mM L-glutamine (Omega), and 1% penicillin/streptomycin (Omega). The media for the cells were renewed every 3 days and kept at 80-90% confluency. Cells were maintained in a humidified environment at 37° C. and 5% CO2.
IMR-90 (1500 cells/well) and A549 (750 cells/well) were seeded on 384-well microplates (Grenier Bio-One) and incubated for 3 hours before the addition of kinase inhibitor(s). The reason that IMR-90 was seeded at double the cell density of A549 is due to the difference in cell division. IMR-90's doubling time is 36-48 hours whereas A549's is 22 hours. […] Furthermore, both A549's and IMR-90's final confluency at 72 hrs is 90-95% and within the range of the ATPlite 1 step assay. ECHO 555 Liquid Handler (Labcyte) was used to dispense nanoliter volumes of each KI to 384-well plates with cells attached (wet dispense). The final volume in the plate is 40 uL and cells were incubated for 72 hours with KI treatment.
ATPlite 1 Step (Perkin Elmer) was used to evaluate the cell number and cytotoxicity. ATP measurements were done by dispensing 20 uL of the ATPlite 1 Step solution to each well to a final volume of 60 uL. The plate was placed on a shaker at 1100 rpm and the luminescence activity was detected by Analyst GT Plate Reader. The percent (%) of control is the quantity of ATPlite 1 step measurement of the treated versus the untreated wells of each individual cell type.
The 244 kinase inhibitors (KIs) of the EMD drug library were screened at 1000 nM individually and the treatment lasted for 72 hours.
where vN indicates the viability of normal cells (IMR90) after treatment, and vc the viability of cancer cells (A549) after treatment. […] For the other 243 KIs we used the standard dose of 1000 nM.
For the next test, the system named is primary myoblasts. As to the kind of experiment: Protection of primary myoblasts against 0.1% hypoxia (viability screen). Conditions: single-drug screening of EMD library. It is filed as cell-based. The source says: We used our method to predict synergistic effects between four kinase inhibitors: G13, O20, I15, and K10. […] Out of 244 drugs from the EMD library of kinase inhibitors, we first selected 58 drugs that have a positive effect on cell survivability against hypoxia. Single-drug screening results with these drugs were used as a training set to build a regression model that uses the kinase catalytic activity as predictor of the viability. The model assumed a dependence of the viability Vii of the form of Equation (V)

Consider ten compounds from patent US20160019374A1, “METHODS FOR ESTABLISHING COMBINATIONS OF KINASE INHIBITORS FOR THE TREATMENT OF MEDICAL CONDITIONS” (SALGOMED, INC., priority 2014, published 2016).

With `O=C1c2ccccc2-c2nc3nnnn3nc21` [A15, PDK1/Akt1/Flt3 Dual Pathway Inhibitor], the “selectivity rank in primary screen (IMR-90 to A549 viability ratio)” value is reported as “top ten most selective” in test [1] and “top hit” in test [1] (listed as PDK1/Akt1/Flt3 Dual Pathway Inhibitor).

On to `Nc1nc(Nc2ccc(S(N)(=O)=O)cc2)nn1C(=S)Nc1c(F)cccc1F` [C16, Cdk1/2 In. III], for which the “selectivity rank in primary screen (IMR-90 to A549 viability ratio)” value in test [1] is recorded as “top ten most selective”.

Take `NS(=O)(=O)c1ccc(N=Nc2c(O)[nH]c3ccc(Br)cc23)cc1` [D07, Cdk2 In. II]: the “selectivity rank in primary screen (IMR-90 to A549 viability ratio)” value in test [1] was “top ten most selective”.

Turning to `CC(C)c1nn(-c2c(Cl)cccc2Cl)c2nc(Cc3ccc(OCCO)cc3)[nH]c(=O)c12` [E20, Cdk/Crk In.], in test [1], the “selectivity rank in primary screen (IMR-90 to A549 viability ratio)” value is “top ten most selective”.

In the case of `O=C1c2ccccc2-[n+]2ccc3c([nH]c4ccccc43)c21` [G10, Fascaplysin, Synthetic], the “selectivity rank in primary screen (IMR-90 to A549 viability ratio)” value in test [1] is on record as “top ten most selective”.

With `Cc1cc(I)ccc1Nc1c(C(=O)NOCC2CC2)cc(F)c(F)c1F` [H15, MEK1/2 In. II], the “selectivity rank in primary screen (IMR-90 to A549 viability ratio)” value in test [1] is listed as “top ten most selective”.

With `Cc1ccc([N+](=O)[O-])cc1S(=O)(=O)N(C)/N=C/c1cnc2ccc(Br)cn12.Cl` [L13, PI 3-Kα In. VIII], the “selectivity rank in primary screen (IMR-90 to A549 viability ratio)” value in test [1] was “top ten most selective”.

Take `Nc1cccc(-c2cc3c(Oc4cccc(O)c4)ncnc3[nH]2)c1` [M16, GSK3b In. XII, TWS119]: in test [1], the “selectivity rank in primary screen (IMR-90 to A549 viability ratio)” value is on record as “top ten most selective”.

For the compound `c1nc2nc(Nc3ccc(N4CCOCC4)cc3)nc(NC3CCCCC3)c2[nH]1` [N05, Reversine], the “selectivity rank in primary screen (IMR-90 to A549 viability ratio)” value in test [1] is reported as “top ten most selective”.

Regarding `COc1ccc2c(c1)/C(=C/c1cnc[nH]1)C(=O)N2` [O20, SU9516], the “protection of primary myoblasts against hypoxia” value in the test with primary myoblasts is on record as “protect primary myoblasts against 0.1% hypoxia”. Moreover, in test [1], the “selectivity rank in primary screen (IMR-90 to A549 viability ratio)” value is “top ten most selective”.
